# Source: PubChem BioAssay AID248 (DTP/NCI, 2004)
# “And” between values parts separate entries of the source, which are not always exact repeats. Equal entries are not always repeated. Toxic doses and inconclusive results are not listed. Numbered stars: 1 amine (or outer) side, 2 acyl side, 3 side chain; on linkers, the order of the positions; unused ones are H or OH. Bridge positions count the residues as written; N and C are the ends. Square brackets hold non-standard residues; d marks the D form. Peptide text beside a SMILES is read from it. * marks the point of attachment. X3 = CC(C)C(C)C(C(=O)[*:2])N(C)[*:1]; Picolinoyl(3-OH) = O=C(c1ncccc1O)*; NMePhg = CN[CH](C(=O)O)c1ccccc1; Hyp = O=C(O)[CH]1C[CH](O)CN1; Sar = CNCC(=O)O
# System: L1210 leukemia ip in BDF1 mice, survival T/C
# Test: NCI In Vivo Anticancer Drug Screen. Data for tumor model L1210 Leukemia (intraperitoneal) in B6D2F1 (BDF1) mice
# Details: endpoint: mean survival time, higher = longer survival
# In short: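 Read-out is survival time, reported as the treated-group measurement over the vehicle-control measurement.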
# [1] = dose: 100.0 mg/kg/injection, schedule: Q01DX009 (ip), vehicle: Klucel (hydroxypropylcellulose) (HPC)
# [2] = dose: 100.0 mg/kg/injection, schedule: Q04DX002 (ip), vehicle: Klucel (hydroxypropylcellulose) (HPC)
# [3] = dose: 200.0 mg/kg/injection, schedule: Q01DX009 (ip), vehicle: Klucel (hydroxypropylcellulose) (HPC)
# [4] = dose: 100.0 mg/kg/injection, schedule: Q04DX003 (ip), vehicle: saline
# [5] = dose: 200.0 mg/kg/injection, schedule: Q04DX003 (ip), vehicle: saline
# [6] = dose: 400.0 mg/kg/injection, schedule: Q04DX003 (ip), vehicle: saline
# [7] = dose: 25.0 mg/kg/injection, schedule: Q04DX002 (ip), vehicle: Klucel (hydroxypropylcellulose) (HPC)
# [8] = dose: 50.0 mg/kg/injection, schedule: Q04DX002 (ip), vehicle: Klucel (hydroxypropylcellulose) (HPC)
# [9] = dose: 6.25 mg/kg/injection, schedule: Q01DX009 (ip), vehicle: saline
# [10] = dose: 12.5 mg/kg/injection, schedule: Q01DX009 (ip), vehicle: saline
# [11] = dose: 100.0 mg/kg/injection, schedule: Q04DX003 (ip), vehicle: Klucel (hydroxypropylcellulose) (HPC)
# [12] = dose: 200.0 mg/kg/injection, schedule: Q04DX003 (ip), vehicle: Klucel (hydroxypropylcellulose) (HPC)
# [13] = dose: 100.0 mg/kg/injection, schedule: Q04DX003 (ip), vehicle: saline with Tween-80
# [14] = dose: 200.0 mg/kg/injection, schedule: Q04DX003 (ip), vehicle: saline with Tween-80
# [15] = dose: 400.0 mg/kg/injection, schedule: Q04DX003 (ip), vehicle: saline with Tween-80
# [16] = dose: 50.0 mg/kg/injection, schedule: Q01DX009 (ip), vehicle: saline
# [17] = dose: 100.0 mg/kg/injection, schedule: Q01DX009 (ip), vehicle: saline
# [18] = dose: 200.0 mg/kg/injection, schedule: Q01DX009 (ip), vehicle: saline
structure (smiles),measurement,setting,value
c1ccc(NCCOc2ccccc2)cc1,T/C,[1],108 % of control
same,T/C,[2],114 % of control
same,T/C,[3],94 % of control
same,T/C,"dose: 200.0 mg/kg/injection, schedule: Q04DX002 (ip), vehicle: Klucel (hydroxypropylcellulose) (HPC)",98 % of control
same,T/C,"dose: 400.0 mg/kg/injection, schedule: Q04DX002 (ip), vehicle: Klucel (hydroxypropylcellulose) (HPC)",88 % of control
CC(C)CC1NC(=O)C(NC(=O)c2ncccc2O)C(C)OC(=O)C(c2ccccc2)N(C)C(=O)C(C)NC(=O)C(C(C)C(C)C)N(C)C(=O)CN(C)C(=O)C2CC(O)CN2C1=O (stereo unspecified) ({Picolinoyl(3-OH)}-TL[Hyp][Sar][X3]A[NMePhg]; ester 1-C; configuration not given here),T/C,"dose: 5.3 mg/kg/injection, schedule: Q01DX Z (ip), vehicle: saline",100 % of control
same,T/C,"dose: 8.0 mg/kg/injection, schedule: Q01DX Z (ip), vehicle: saline",100 % of control
same,T/C,"dose: 12.0 mg/kg/injection, schedule: Q01DX Z (ip), vehicle: saline",103 % of control
same,T/C,"dose: 18.0 mg/kg/injection, schedule: Q01DX Z (ip), vehicle: saline",103 % of control and 109 % of control
same,T/C,"dose: 36.0 mg/kg/injection, schedule: Q01DX Z (ip), vehicle: saline",97 % of control
same,T/C,"dose: 72.0 mg/kg/injection, schedule: Q01DX Z (ip), vehicle: saline",103 % of control
same,T/C,"dose: 144.0 mg/kg/injection, schedule: Q01DX Z (ip), vehicle: saline",106 % of control
COc1ccc(Br)cc1/C=N\NS(=O)(=O)c1ccc(C)cc1,T/C,"dose: 100.0 mg/kg/injection, schedule: Q01DX009 (ip), vehicle: other",100 % of control
same,T/C,[4],96 % of control
same,T/C,"dose: 200.0 mg/kg/injection, schedule: Q01DX009 (ip), vehicle: other",105 % of control
same,T/C,[5],96 % of control
same,T/C,"dose: 400.0 mg/kg/injection, schedule: Q01DX009 (ip), vehicle: other",114 % of control
same,T/C,[6],93 % of control
O=C(O)C1=CC2(c3ccccc3)C(=O)C1(c1ccccc1)C1=C2c2cccc3cccc1c23 (stereo unspecified),T/C,"dose: 50.0 mg/kg/injection, schedule: Q01DX009 (ip), vehicle: saline with Tween-80",93 % of control
same,T/C,"dose: 100.0 mg/kg/injection, schedule: Q01DX009 (ip), vehicle: saline with Tween-80",93 % of control
same,T/C,"dose: 200.0 mg/kg/injection, schedule: Q01DX009 (ip), vehicle: saline with Tween-80",93 % of control
NCc1cccc(NC(=O)COc2cccc(Cl)c2)c1,T/C,[7],100 % of control
same,T/C,[8],111 % of control
same,T/C,[2],100 % of control
CCN(CCNS(C)(=O)=O)c1ccc(N)c(C)c1,T/C,"dose: 3.12 mg/kg/injection, schedule: Q01DX009 (ip), vehicle: saline",101 % of control
same,T/C,[9],91 % of control
same,T/C,[10],99 % of control and 92 % of control
Cc1c2cnccc2c(C)c2c1c1ccccc1n2C,T/C,"dose: 29.0 mg/kg/injection, schedule: Q01DX Z (ip), vehicle: saline",109 % of control
same,T/C,"dose: 44.0 mg/kg/injection, schedule: Q01DX Z (ip), vehicle: saline",123 % of control
same,T/C,"dose: 66.0 mg/kg/injection, schedule: Q01DX Z (ip), vehicle: saline",120 % of control
same,T/C,"dose: 66.0 mg/kg/injection, schedule: Q01DX Z (oral), vehicle: saline",112 % of control
same,T/C,"dose: 100.0 mg/kg/injection, schedule: Q01DX Z (ip), vehicle: saline",121 % of control
same,T/C,"dose: 100.0 mg/kg/injection, schedule: Q01DX Z (oral), vehicle: saline",115 % of control
same,T/C,"dose: 150.0 mg/kg/injection, schedule: Q01DX Z (oral), vehicle: saline",155 % of control
same,T/C,"dose: 225.0 mg/kg/injection, schedule: Q01DX Z (oral), vehicle: saline",171 % of control
O=C(Nc1ccccc1Cl)Oc1ccc(-c2ccccc2)cc1Br,T/C,[1],102 % of control
same,T/C,[11],94 % of control
same,T/C,[3],96 % of control
same,T/C,[12],96 % of control
same,T/C,"dose: 400.0 mg/kg/injection, schedule: Q01DX009 (ip), vehicle: Klucel (hydroxypropylcellulose) (HPC)",104 % of control
same,T/C,"dose: 400.0 mg/kg/injection, schedule: Q04DX003 (ip), vehicle: Klucel (hydroxypropylcellulose) (HPC)",102 % of control
c1ccc([P+]2(Cc3cccc4ccccc34)CCc3[nH]c4ccccc4c3C2)cc1 (stereo unspecified),T/C,[11],96 % of control
same,T/C,[12],98 % of control
O=C(c1ccccc1)C(O)(c1ccccc1)C1CCCC/C1=N\N(c1ccccc1)c1ccccc1 (stereo unspecified),T/C,[13],92 % of control
same,T/C,[14],96 % of control
same,T/C,[15],94 % of control
COc1ccc(/C=C/c2cc[n+](C)cc2)cc1,T/C,"dose: 12.5 mg/kg/injection, schedule: Q04DX003 (ip), vehicle: saline with Tween-80",97 % of control
same,T/C,"dose: 25.0 mg/kg/injection, schedule: Q04DX003 (ip), vehicle: saline with Tween-80",94 % of control
same,T/C,"dose: 50.0 mg/kg/injection, schedule: Q04DX003 (ip), vehicle: saline with Tween-80",94 % of control
Cc1cc(C)c2c(c1)CC2N (stereo unspecified),T/C,[7],95 % of control
same,T/C,[8],95 % of control
same,T/C,[2],95 % of control and 103 % of control
Nc1cccc(OCc2nc(N)nc(N)c2-c2ccc(Cl)c(Cl)c2)c1,T/C,"dose: 100.0 mg/kg/injection, schedule: Q01DX001 (ip), vehicle: saline with Tween-80",97 % of control
same,T/C,"dose: 200.0 mg/kg/injection, schedule: Q01DX001 (ip), vehicle: saline with Tween-80",90 % of control
C/C(=N/Nc1ccc([N+](=O)[O-])cc1[N+](=O)[O-])c1ccccc1,T/C,[13],88 % of control
same,T/C,[14],93 % of control
same,T/C,[15],90 % of control
CC(=O)NC(CSC(=S)N(C)C)C(=O)O (stereo unspecified),T/C,[16],97 % of control
same,T/C,[17],93 % of control
same,T/C,[18],101 % of control
N#Cc1c(NN)n(C2OC(CO)C(O)C2O)c2ncncc12 (stereo unspecified),T/C,"dose: 100.0 mg/kg/injection, schedule: Q01DX005 (ip), vehicle: saline",106 % of control
same,T/C,"dose: 200.0 mg/kg/injection, schedule: Q01DX005 (ip), vehicle: saline",106 % of control
COC(=O)C(CC(C)C)NC(=O)CN(C)C(=O)OCc1ccccc1 (stereo unspecified),T/C,"dose: 75.0 mg/kg/injection, schedule: Q04DX003 (sc), vehicle: olive oil, sesame oil, peanut oil",105 % of control
same,T/C,"dose: 150.0 mg/kg/injection, schedule: Q04DX003 (sc), vehicle: olive oil, sesame oil, peanut oil",103 % of control
same,T/C,"dose: 300.0 mg/kg/injection, schedule: Q04DX003 (sc), vehicle: olive oil, sesame oil, peanut oil",108 % of control
CN1C2CCC1CC(OC1c3ccccc3CCc3ccccc31)C2 (stereo unspecified),T/C,[9],105 % of control
same,T/C,[10],104 % of control
same,T/C,"dose: 25.0 mg/kg/injection, schedule: Q01DX009 (ip), vehicle: saline",101 % of control
same,T/C,[16],101 % of control
CCOC(=O)c1ccc(NC(=O)Nc2cccc(F)c2)cc1,T/C,[1],101 % of control
same,T/C,[3],100 % of control
Cc1ccc(N=Cc2cc(Cl)cc(Cl)c2OC(=O)c2ccccc2)cc1C,T/C,"dose: 100.0 mg/kg/injection, schedule: Q04DX002 (ip), vehicle: saline with Tween-80",95 % of control
same,T/C,"dose: 200.0 mg/kg/injection, schedule: Q04DX002 (ip), vehicle: saline with Tween-80",92 % of control
same,T/C,"dose: 400.0 mg/kg/injection, schedule: Q04DX002 (ip), vehicle: saline with Tween-80",88 % of control
COC(=O)C(c1ccccc1)C1(O)CCN(CC2COc3ccccc3O2)CC1 (stereo unspecified),T/C,"dose: 25.0 mg/kg/injection, schedule: Q01DX001 (ip), vehicle: Klucel (hydroxypropylcellulose) (HPC)",96 % of control
same,T/C,"dose: 50.0 mg/kg/injection, schedule: Q01DX001 (ip), vehicle: Klucel (hydroxypropylcellulose) (HPC)",93 % of control
same,T/C,"dose: 100.0 mg/kg/injection, schedule: Q01DX001 (ip), vehicle: Klucel (hydroxypropylcellulose) (HPC)",97 % of control and 102 % of control
O=S(=O)(O)C(O)C(Cl)(Cl)Cl (stereo unspecified),T/C,"dose: 100.0 mg/kg/injection, schedule: Q01DX001 (ip), vehicle: saline",103 % of control
same,T/C,[17],98 % of control
same,T/C,[4],107 % of control
same,T/C,"dose: 200.0 mg/kg/injection, schedule: Q01DX001 (ip), vehicle: saline",101 % of control
same,T/C,[18],101 % of control
same,T/C,[5],96 % of control
same,T/C,"dose: 400.0 mg/kg/injection, schedule: Q01DX001 (ip), vehicle: saline",98 % of control
same,T/C,"dose: 400.0 mg/kg/injection, schedule: Q01DX009 (ip), vehicle: saline",98 % of control
same,T/C,[6],95 % of control
